# Test results as given in patent publication US12458605B2, “Lipid nanoparticle” (National University Corporation Hokkaido University, priority 2020, dated 2025).
# Several values for one entry are separate records, joined by “and”; a condition that tells them apart may be missing. Equal values may be shown once.
# Key:
# [1] = Average particle size (ζ-Average) and PDI by dynamic light scattering (Zetasizer Nano ZSP); format: physicochemical
# Summary of the method: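 Dynamic light scattering of the particles in PBS(−) gave both the polydispersity index and the ζ-Average mean size.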
# [2] = Storage stability of FlucmRNA-loaded LNP at −80, 5, 25 and 40° C.; format: physicochemical; conditions: for quality at production (storage stability criteria): criteria: PDI 0.2 or less, encapsulation 80% or more; for period for which quality remained good, −80° C.: maximum storage period 1 week
# Summary of the method: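 Reported period is how long all three criteria hold: encapsulation rate at 80% or more, PDI of 0.2 or less, and mean particle size within +/−20 nm of day-of-preparation value. Particle size, PDI and nucleic acid encapsulation were tracked over time at storage temperatures of −80, 5, 25 and 40° C.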
# [3] = siRNA/mRNA encapsulation rate by Ribogreen reagent (section IV); format: physicochemical; conditions: for % siRNA encapsulation: F7siRNA-loaded LNP, 50:10:38.5:1.5, N/P ratio 6; for % mRNA encapsulation: FlucmRNA-loaded LNP, 50:10:38.5:1.5
# Summary of the method: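 Encapsulation % was calculated as (total − surface nucleic acid)/total × 100, with both values measured by RiboGreen fluorescence at 485/528 nm. Total RNA was read on LNPs lysed with 1% Triton X-100 at 1.2 μg/mL, and surface RNA on intact LNPs at 8 μg/mL in TE buffer. Concentrations came from a 0-2.5 μg/mL Triton-containing calibration curve.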
# [4] = system: F7; experiment: In vivo F7 knockdown, plasma F7 enzyme activity (BIOPHEN FVII), Balb/c mice; conditions: for F7 enzyme activity (Ratio using MC3 as 1) / F7 enzyme activity (%): i.v. 0.025 mg siRNA/kg, plasma at 24 hours; for F7 enzyme activity (Ratio using MC3 as 1): relative plasma F7 activity of MC3 LNP as 1; for F7 enzyme activity (%): untreated mice as 100%; for knockdown activity, compared with MC3: F7siRNA-loaded LNP, versus LNP comprising MC3
# Summary of the method: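 Plasma factor VII activity was read 24 h after a single intravenous 0.025 mg siRNA/kg dose of siRNA-loaded lipid nanoparticles in 5-week-old female Balb/c mice. Activity is relative to untreated animals (100%) and normalised to the MC3 nanoparticle benchmark (=1).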
# [5] = Nucleic acid encapsulation rate by Ribogreen (section II); format: physicochemical; conditions: for % mRNA encapsulation: NlucmRNA-loaded LNP, 60:10:40:1; for % pDNA encapsulation: pFluc-loaded LNP
# Method: The encapsulation rates of siRNA, mRNA, and pDNA of lipid nanoparticles were measured using Ribogreen (manufactured by life technologies).
# [6] = Zeta potential in 10 mM HEPES buffer (pH 7.4); format: physicochemical
# Method: (§1) The average particle size (number-average value) and PDI in PBS(−) and zeta potential in 10 mM HEPES buffer solution (pH 7.4) of lipid nanoparticles were measured using “Zetasizer Nano ZS ZEN3600”, an analyzer utilizing dynamic light scattering (manufactured by Malvern).
# [7] = system: liver; experiment: In vivo Fluc activity of FlucmRNA-loaded LNP by in vivo imaging, liver; conditions: Balb/c mice, FlucmRNA-loaded LNP i.v. 0.1 mg mRNA/kg, 6 hours
# Summary of the method: (§2)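 Read-out is average radiance (p/s/cm2/sr, about 560 nm) from whole-animal imaging of liver and spleen 6 h post-dose, after tail-vein luciferin at 1.5 mg/mouse. Dosing was intravenous, 0.1 mg mRNA/kg, in 7-week-old female Balb/c mice.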
# [8] = Average particle size and PDI by dynamic light scattering (Zetasizer Nano ZS); format: physicochemical
# Method: as §1
# [9] = system: spleen; experiment: In vivo Fluc activity of FlucmRNA-loaded LNP by in vivo imaging, spleen; conditions: Balb/c mice, 6 hours; for Fluc Activity in spleen: FlucmRNA-loaded LNP i.v. 0.1 mg mRNA/kg
# Summary of the method: as §2
# [10] = pKa of lipid nanoparticles by TNS (section II); format: physicochemical; conditions: F7siRNA-loaded LNP; compared with LNP of straight-chain CL4H6 or CL15H6 (FIG. 1)
# Method: The pKa of lipid nanoparticles was measured using p-toluidino-2-naphthalenesulfonic acid (TNS). First, TNS (final concentration: 0.75 μM) and lipid nanoparticles (final concentration: […]) were mixed in buffer solution adjusted to each pH. The fluorescence intensity of the prepared mixture was measured with a microplate reader. The highest and lowest values among the measured values were taken as 100% and 0% charge rates respectively, and the pH indicating 50% charge rate was calculated as pKa.
# [11] = system: F7; experiment: In vivo F7 knockdown, plasma F7 enzyme activity, ICR mice; conditions: i.v. 0.003-0.1 mg siRNA/kg, plasma at 24 hours, compared with LNP of CL4H6 or CL15H6 (FIG. 2)
# Method: Then, each prepared F7siRNA-loaded lipid nanoparticles were administered to ICR mice (4 weeks old, female) and in vivo F7 knockdown activity was examined.
# Specifically, each F7siRNA-loaded lipid nanoparticles were intravenously administered to ICR mice at 0.003-0.1 mg siRNA/kg, and plasma F7 enzyme activity at 24 hours later was measured. Relative plasma F7 enzyme activity (%) of mice administered each F7siRNA-loaded lipid nanoparticles was calculated using plasma F7 enzyme activity of untreated mice as 100%. FIG. 2(B) is the results of intravenous administration of each F7siRNA-loaded lipid nanoparticle at 0.1 mg siRNA/kg.
# [12] = F7siRNA-loaded LNP, 50:10:38.5:1.5, N/P ratio 6
# [13] = FlucmRNA-loaded LNP, 50:10:38.5:1.5
# [14] = FlucmRNA-loaded LNP, lipid:DSPC:cholesterol:DMG-PEG2K 50:10:38.5:1.5
# [15] = NlucmRNA-loaded LNP, 60:10:40:1
# [16] = NlucmRNA-loaded LNP, lipid:DSPC:cholesterol:PEG-DMG 60:10:40:1
# [17] = pFluc-loaded LNP, 50:10:40:1.5, N/P ratio 6
# [18] = pFluc-loaded LNP, 50:10:40:1.5, N/P ratio 9
SMILES,"PDI [1, 12]","ζ-Average (nm) [1, 12]","PDI [1, 13]","ζ-Average (nm) [1, 14]",% siRNA encapsulation [3],% mRNA encapsulation [3],% mRNA encapsulation [5],% pDNA encapsulation ([5]; N/P ratio 6),% pDNA encapsulation ([5]; N/P ratio 9),"ζ-potential (mV) [6, 15]","ζ-potential (mV) ([6]; pFluc-loaded LNP, N/P ratio 6)","ζ-potential (mV) ([6]; pFluc-loaded LNP, N/P ratio 9)","PdI [8, 15]","ζ-Average (nm) [8, 16]","period for which quality remained good, −80° C. [2]","period for which quality remained good, 5° C. ([2]; maximum storage period 5 weeks)","period for which quality remained good, 25° C. ([2]; maximum storage period 5 weeks)",F7 enzyme activity (Ratio using MC3 as 1) [4],Fluc Activity in liver [7],Fluc Activity in spleen [9],also measured
"CCCCCCCC/C=C\CCCCCCCC(=O)OCCCCCCC(O)(CCCCCCOC(=O)CCCCCCC/C=C\CCCCCCCC)CCCCOC(=O)C1CCN(C)CC1 [CL15H6, 7-hydroxy-7-(4-((1-methylpiperidine-4-carbonyl)oxy)butyl)tridecane-1,13-diyl dioleate, reference compound]",0.142,123.50 nm,0.238,180.90 nm,100.2%,83.8%,90.5%,72.4%,81.9 ± 3^ %,0.123 mV,0.367 mV,0.9 ± 0.9 mV,0.495,94.34 nm,–,–,–,1.99,1.17E+05 Avg Radiance [p/s/cm2/sr],6.17E+05 Avg Radiance [p/s/cm2/sr],"quality at production (storage stability criteria) [2]: Does not meet the criteria for “good” at production; ζ-Average (nm) [8, 17]: 121.7 nm; ζ-Average (nm) [8, 18]: 149.9 ± 9.8 nm; PdI ([8]; pFluc-loaded LNP, N/P ratio 6): 0.08; PdI ([8]; pFluc-loaded LNP, N/P ratio 9): 0.11 ± 0.01"
"CCCCCCCC/C=C\CCCCCCCC(=O)OCCCCCCC(O)(CCCCCCOC(=O)CCCCCCC/C=C\CCCCCCCC)CCCCN(CCC)CCC [CL4H6, 7-(4-(dipropylamino)butyl)-7-hydroxytridecane-1,13-diyl dioleate, reference compound]",0.102,68.86 nm,0.072,71.28 nm,96.1%,80.1%,77.6%,41.5%,70 ± 5.2%,−1.23 mV,−0.57 mV,−0.4 ± 0.4 mV,0.139,113.4 nm,0 week,0 week weeks,1 week weeks,–,1.06E+07 Avg Radiance [p/s/cm2/sr],2.10E+06 Avg Radiance [p/s/cm2/sr],"period for which quality remained good, 40° C. (days) ([2]; maximum storage period 5 weeks): 0 day days; F7 enzyme activity (%) [4]: 47.2%; ζ-Average (nm) [8, 17]: 105.6 nm; ζ-Average (nm) [8, 18]: 113.9 ± 4.2 nm; PdI ([8]; pFluc-loaded LNP, N/P ratio 6): 0.14; PdI ([8]; pFluc-loaded LNP, N/P ratio 9): 0.2 ± 0.03"
CCCCCCCCCCC(CCCCCC)C(=O)OCCCCCCC(O)(CCCCCCOC(=O)C(CCCCCC)CCCCCCCCCC)CCCCN(CCC)CCC (stereo not shown) [CL4F 12-6],0.012 and 0.008,92.28 nm and 94.26 nm,0.017,82.84 nm,99.3% and 99.6%,99.7%,–,–,–,–,–,–,–,–,1 week,5 weeks,5 weeks,0.18,5.86E+07 Avg Radiance [p/s/cm2/sr],1.72E+06 Avg Radiance [p/s/cm2/sr],"period for which quality remained good, 40° C. (weeks) ([2]; maximum storage period 5 weeks): 5 weeks; knockdown activity, compared with MC3 [4]: higher knockdown activity; F7 enzyme activity (%) [4]: 6%"

# More lines, main results first:
"PDI [1, 12]","ζ-Average (nm) [1, 12]","PDI [1, 13]","ζ-Average (nm) [1, 14]",% siRNA encapsulation [3],% mRNA encapsulation [3],% mRNA encapsulation [5],% pDNA encapsulation ([5]; N/P ratio 6),% pDNA encapsulation ([5]; N/P ratio 9),"ζ-potential (mV) [6, 15]","ζ-potential (mV) ([6]; pFluc-loaded LNP, N/P ratio 6)","ζ-potential (mV) ([6]; pFluc-loaded LNP, N/P ratio 9)","PdI [8, 15]","ζ-Average (nm) [8, 16]","period for which quality remained good, −80° C. [2]","period for which quality remained good, 5° C. ([2]; maximum storage period 5 weeks)","period for which quality remained good, 25° C. ([2]; maximum storage period 5 weeks)",SMILES,F7 enzyme activity (Ratio using MC3 as 1) [4],Fluc Activity in liver [7],Fluc Activity in spleen [9],also measured
0.398,287.9 nm,0.369,370.30 nm,95.7%,64.2%,–,–,–,–,–,–,–,–,–,–,–,CCCCCC(CCC)C(=O)OCCCCCCC(O)(CCCCCCOC(=O)C(CCC)CCCCC)CCCCOC(=O)C1CCN(C)CC1 (stereo not shown) [CL15F 7-3],2.08,5.34E+06 Avg Radiance [p/s/cm2/sr],1.48E+07 Avg Radiance [p/s/cm2/sr],"quality at production (storage stability criteria) [2]: Does not meet the criteria for “good” at production; Fluc activity in the spleen, compared with CL15F6 ([9]; 0.1 mg mRNA/kg, versus LNP comprising CL15F6 (Table 7)): higher Fluc activity"
0.032,99.72 nm,0.048,89.41 nm,99.9%,99.0%,–,–,–,–,–,–,–,–,1 week,5 weeks,5 weeks,CCCCCCCC(CCCCC)C(=O)OCCCCCCC(O)(CCCCCCOC(=O)C(CCCCC)CCCCCCC)CCCCN(CCC)CCC (stereo not shown) [CL4F 9-5],0.43,6.84E+07 Avg Radiance [p/s/cm2/sr],9.53E+06 Avg Radiance [p/s/cm2/sr],"period for which quality remained good, 40° C. (weeks) ([2]; maximum storage period 5 weeks): 5 weeks; knockdown activity, compared with MC3 [4]: higher knockdown activity; Fluc activity in the spleen, compared with CL4F6 ([9]; 0.1 mg mRNA/kg, versus LNP comprising CL4F6 (Tables 5 and 6)): higher Fluc activity"
0.014,92.27 nm,–,82.66 nm and 88.07 nm,99.9%,99.6% and 99.4%,90%,97.1%,94.8 ± 3.3%,−3.72 mV,−5.17 mV,−1.7 ± 0.5 mV,0.157,127.2 nm,1 week,5 weeks,5 weeks,"CCCCCCCCC(CCCCCC)C(=O)OCCCCCCC(O)(CCCCCCOC(=O)C(CCCCCC)CCCCCCCC)CCCCN(CCC)CCC (stereo not shown) [CL4F6, 7-(4-(dipropylamino)butyl)-7-hydroxytridecane-1,13-diyl bis(2-hexyldecanoate)]",–,–,–,"period for which quality remained good, 40° C. (weeks) ([2]; maximum storage period 5 weeks): 5 weeks; F7 enzyme activity (%) [4]: 6.8%; ζ-Average (nm) [8, 17]: 79.91 nm; ζ-Average (nm) [8, 18]: 91.3 ± 11.2 nm; PdI ([8]; pFluc-loaded LNP, N/P ratio 6): 0.08; PdI ([8]; pFluc-loaded LNP, N/P ratio 9): 0.19 ± 0.03; pKa of lipid nanoparticle, compared [10]: lower pKa; in vivo F7 knockdown activity, compared [11]: equivalent in vivo F7 knockdown activity"
